Here are results for three molecules from US20110124589A1, “INHALED FOSFOMYCIN/TOBRAMYCIN FOR THE TREATMENT OF CHRONIC OBSTRUCTIVE PULMONARY DISEASE” (Gilead Sciences, Inc., priority 2009, published 2011).

≈ marks a conversion by molar mass, not a printed value. Read-outs that look alike come from different tables or passages of the source.

Series [1] relates to M. catarrhalis. The series can be described thus: MIC of recent clinical isolates, agar dilution (CMI study). It is filed as cell-based. Conditions: Moraxella catarrhalis; 103 isolates.
The subject of series [2] is P. aeruginosa. The series can be described thus: MIC, agar-plate dilution with 2% porcine gastric mucin (Method B). Type of series: cell-based. As to conditions: Pseudomonas aeruginosa; 100 P. aeruginosa strains from cystic fibrosis lung sputum; 2% mucin. As for the experimental part: Bacterial strains were streaked onto […] […] Louis, Mo.). […] Louis, Mo.). […] Methodologies were identical to that described in Method A above, with the exception that 2% (weight/volume) porcine gastric mucin (Sigma Chemical Co., St. Louis, Mo.) was added to the MHA prior to autoclaving.

For series [3], the system named is M. catarrhalis. Conditions: 5 isolates; agar dilution; cited from earlier work.
The subject of series [4] is P. aeruginosa. As to conditions: agar dilution, cited from earlier work.
Series [5] has as its system S. aureus. As to conditions: cited from earlier work.
For series [6], the system named is H. influenzae. The series can be described thus: MIC of recent clinical isolates, agar dilution (CMI study). As to conditions: Haemophilus influenzae. It is filed as cell-based.
The next series deals with P. aeruginosa C177. The series can be described thus: Rat bacterial pneumonia model.
Series [7] deals with H. influenzae. As to conditions: 16 isolates; agar dilution; cited from earlier work.
Series [8] deals with S. pneumoniae. As to conditions: 8 isolates; agar dilution; cited from earlier work.
Series [9] deals with S. pneumoniae. Description: MIC of recent clinical isolates, agar dilution (CMI study). Type of series: cell-based.
In series [10] the test system is P. aeruginosa ATCC 27853. Description: MBC/MIC, broth microdilution.
Description: The MBCs of fosfomycin and tobramycin alone for P. aeruginosa ATCC 27853, E. coli ATCC 25922, and S. aureus ATCC 29213 were determined by the broth microdilution method according to NCCLS standards (NCCLS, 1999). […] Bacterial strains were streaked onto blood agar plates and incubated at 35° C. for 18-24 hours. Two to three bacterial colonies from the overnight cultures were inoculated into 3 mL of sterile normal saline, vortexed briefly, and adjusted to a 0.5 McFarland standard (NCCLS, 2003). Fifty microliters of bacterial inoculum (approximately 2×10^5 CFU/mL) was pipeted into individual wells of 96-well plates containing 50 μl of CAMHB (Remel, Lenexa, Kanas) supplemented with 2-fold dilutions of antibiotics ranging in concentration from 0.125 μg/mL to 128 μg/mL. […] The contents of wells showing no growth (MIC and above) were mixed with a pipetor and duplicate 10 μl samples spread onto blood agar plates. Culture plates were incubated at 35° C. for 18-24 hours and the number of bacterial colonies on each plate enumerated manually. Rejection values were determined by NCCLS methods which considers the final inoculum size, single or double sampling, pipetting error, and the Poisson distributuion of sample responses (NCCLS, 1999). […] The MBC/MIC ratios were calculated by dividing the MBC by the MIC.
In the next series the test system is P. aeuriginosa. The series can be described thus: Dose-response time-kill studies in 2% mucin. Type of series: cell-based.
The next series has as its system S. pyogenes. As to conditions: 5 isolates; broth microdilution; cited from earlier work.
In series [11] the test system is Klebsiella spp. As to conditions: 22 isolates; broth microdilution; cited from earlier work.
In series [12] the test system is S. aureus. The series can be described thus: MIC, agar-plate dilution (Method A). Conditions: Staphylococcus aureus.
Description: (§1) The efficacy of antibiotics and antibiotic combinations against Gram-positive and Gram-negative bacteria representative of species that cause respiratory infections were evaluated in MIC assays. […] H. influenzae, M. catarrhalis, and S. aureus, were isolated from respiratory tract infections. E. coli ATCC 25922, P. aeruginosa ATCC 27853, and S. aureus ATCC 29213 were used as quality control stains.
(§2) Method A: The MICs of fosfomycin alone, tobramycin alone, or combinations of fosfomycin plus tobramycin were determined by the agar-plate dilution method according to NCCLS guidelines (NCCLS, 2003). Bacterial strains were streaked onto Trypic Soy Agar plates (PML Microbiologicals, Wilsonville, Oreg.) containing 5% defibrinated sheep blood (hereafter referred to as blood agar plates) and incubated overnight at 35° C. Two to three bacterial colonies from the overnight cultures were inoculated into 3 mL of sterile normal saline, vortexed briefly, and adjusted to a 0.5 McFarland standard (NCCLS, 2003). The bacterial suspension was diluted 1:40 in sterile normal saline and served as the inoculum. Mueller-Hinton agar plates (hereafter referred to as MHA) were prepared by combining 16 g of agarose (Becton-Dickinson, Sparks, Md.), 22 g of Mueller-Hinton broth powder (Becton-Dickinson, Sparks, Md.), and adjusted to 1 L with distilled water. The agar was sterilized by autoclaving, cooled to 55° C., and supplemented with 25 μg/mL of glucose-6-phosphate (Sigma-Aldrich, St. Louis, Mo.). Twenty-five mL of cooled agar was aliquoted into 50 mL conical tubes and supplemented with appropriate concentrations of antibiotic to achieve concentrations ranging from 0.06 μg/mL to 512 μg/mL. After gently mixing the agar and antibiotic, the suspension was poured into sterile 100 mm petri dishes and allowed to solidify at room temperature. The antibiotic agar plates were inoculated with approximately 2×10^4 CFU/spot with a 48-point inoculator (Sigma-Aldrich, St. Louis, Mo.). The MIC was defined as the lowest concentration of antibiotic (s) that prevented visible growth after incubation for 18-20 hours at 35° C.
The next series relates to B. cepacia complex. As to conditions: 20 isolates; agar dilution; cited from earlier work.
Series [13] relates to S. pneumoniae. The series can be described thus: MIC, agar-plate dilution (Method A). As to conditions: Streptococcus pneumoniae.
Description: as §1, §2
Series [14] has as its system H. influenzae. Description: MIC, agar-plate dilution (Method A).
Description: as §1, §2
In series [15] the test system is Klebsiella spp. Conditions: cited from earlier work.
In series [16] the test system is H. influenzae. As to conditions: cited from earlier work.
In another series the test system is E. coli. As to conditions: cited from earlier work.
Series [17] is described as follows: Sputum drug concentrations following aerosolization of FTI. It is filed as in vivo, human. Conditions: for Cmax: human, sputum, inhaled. As for the experimental part: In order to assess the amount of drug delivered to the respiratory track, drug concentration was measured in expectorated sputum for patients with CF or bronchiectasis. The fosfomycin and tobramycin range for patient type and dose was 1751-2974 μg/g and 326-881 μg/g, respectively.

Series [18] concerns S. aureus. Description: MIC of recent clinical isolates, agar dilution (CMI study). It is filed as cell-based. Conditions: Staphylococcus aureus.
Series [19] relates to P. aeruginosa ATCC 27853. The series can be described thus: Time-kill experiments in 2% porcine gastric mucin. As to conditions: 2% mucin. It is filed as cell-based. As for the experimental part: These studies were previously reported in PCT Publication no. WO2005/110022 to Gilead Sciences, Inc. (formerly Carus Pharma). Two to three bacterial colonies were inoculated into 10 mL CAMHB and incubated at 35° C. in a shaking water bath (250 rpm) for 18-24 hours. A 1:40 dilution of the overnight culture was made in 10 mL of fresh CAMHB and incubated at 35° C. in a shaking water bath (250 rpm) for 1-2 hours. […] Ten milliliter aliquots were then pipeted into 50 mL conical tubes. […] The killing activity of fosfomycin plus tobramycin was also compared to the killing activity of the individual components. […] A no drug control was conducted in each experiment. […] Bacterial killing was determined at 0, 1, 2, 4, 6, and 24 hours by making 10-fold serial dilutions of the cultures in sterile normal saline, and spreading 100 μl aliquots on blood agar plates. […] The limit of detection for the colony counting method was 1 Log10. Time-kill curves were constructed by plotting the Log10 number of CFU/mL culture versus time.

Series [20] deals with S. aureus. Conditions: 16 isolates; agar dilution; cited from earlier work.

Description for P. aeruginosa C177: Animals were handled according to the guidelines for the Care and use of Laboratory Animals. […] All animal protocols were approved by an IRB/Ethics Committee. Male Sprague-Dawley rats (180-200 g) were obtained from Charles River Laboratories (Hollister, Calif., USA) and acclimatized for 5 days prior to use. Animals were housed individually in ventilated cages, fed Purina Lab Diet ad libitum and allowed free access to water.
Antibiotic efficacy was determined using a rat bacterial pneumonia model. […] Rats were anaesthetized with isoflurane, and ˜10^3 cfu of P. aeruginosa C177 in 2% agar solution were instilled into the lungs with an oral gavage needle. The inoculum was deposited at the first bifurcation and distributed throughout the lungs by inspiration. Animals were allowed to recover for 18 hr post-infection. Each experiment consisted of pre-treatment (n=5-7), saline control with isoflurane, and 100 μL of antibiotic solution or saline was instilled in the trachea using a Microsprayer™ (Penn-Century In., Philadelphia, Pa., USA). Antibiotics were administered intratracheally twice daily for 3 days.
Animals were euthanized by intraperitoneal administration of sodium pentobarbital. The pre-treatment control group was harvested 18 hr post-infection, and the saline and treatment groups 18 hr after the last antibiotic exposure. Lungs were removed aseptically, homogenized in sterile normal saline and viable bacteria determined by the colony count method. Statistical differences between the saline control group and treatment groups were evaluated by the Mann-Whitney Rank Sum Test using GraphPad Prism® software package version 3.03 (GraphPad Software, Inc., San Diego, Calif., USA).

Turning to `NC[C@H]1O[C@H](O[C@H]2[C@H](O)[C@@H](O[C@H]3O[C@H](CO)[C@@H](O)[C@H](N)[C@H]3O)[C@H](N)C[C@@H]2N)[C@H](N)C[C@@H]1O` [Tobramycin], the MIC50 in the series with M. catarrhalis [1] is 0.12 µg/mL; with P. aeruginosa [2] it was 16 µg/mL (≈ 34.2 µM); with P. aeruginosa [4] (CF, 100 isolates), 2 µg/mL (≈ 4.28 µM); in the series on P. aeruginosa [4] (non-CF, 60 isolates) it was 1 µg/mL (≈ 2.14 µM); in the series on H. influenzae [6] (β-lactamase neg, 62 isolates), 4 µg/mL; in the series on H. influenzae [6] (β-lactamase pos, 39 isolates), 4 µg/mL. Besides, the MIC50 with H. influenzae [7] was 1 µg/mL (≈ 2.14 µM); with S. pneumoniae [9] (Penicillin resistant, 32 isolates), 32 µg/mL; in the series on S. pneumoniae [9] (Streptococcus pneumoniae, penicillin suscept., 39 isolates, read-out: MIC50) it was 32 µg/mL; in the series on Klebsiella spp. [11], 0.13 µg/mL (≈ 0.278 µM); in the series on B. cepacia complex, 64 µg/mL (≈ 137 µM); in the series on S. aureus [18] (MRSA, 103 isolates) it was 0.5 µg/mL. Further, the MIC50 in the series with S. aureus [18] (MSSA, 104 isolates) was determined as 0.25 µg/mL. Moreover, the MIC90 with M. catarrhalis [1] is 0.25 µg/mL; in the series with P. aeruginosa [2], 64 µg/mL (≈ 137 µM); in the series with P. aeruginosa [4] (CF, 100 isolates) it was 16 µg/mL (≈ 34.2 µM); in the series on P. aeruginosa [4] (non-CF, 60 isolates), 128 µg/mL (≈ 274 µM); with H. influenzae [6] (β-lactamase neg, 62 isolates), 8 µg/mL; in the series with H. influenzae [6] (β-lactamase pos, 39 isolates), 4 µg/mL. For the same molecule, the MIC90 in the series on H. influenzae [7] was 1 µg/mL (≈ 2.14 µM); with S. pneumoniae [9] (Streptococcus pneumoniae, Penicillin resistant, 32 isolates) it was more than 32 µg/mL; in the series on S. pneumoniae [9] (Streptococcus pneumoniae, penicillin suscept., 39 isolates), more than 32 µg/mL; in the series with Klebsiella spp. [11] it was 16 µg/mL (≈ 34.2 µM); in the series on B. cepacia complex, 512 µg/mL (≈ 1100 µM); in the series with S. aureus [18] (MRSA, 103 isolates), more than 32 µg/mL. The MIC90 in the series on S. aureus [18] (MSSA, 104 isolates) turned out to be 0.5 µg/mL. Also, the MIC range in the series on M. catarrhalis [3] is 0.5 to 1 µg/mL; with H. influenzae [7], 0.5 to 1 µg/mL; with S. pneumoniae [8], 16 to 64 µg/mL; in the series with S. pyogenes it was 16 to 64 µg/mL. For the same molecule, the “Range of MBC/MIC” value with S. aureus [5] (10 strains) was 1-2; in the series on Klebsiella spp. [15] (5 strains), 1-4; in the series with H. influenzae [16] (6 strains), 1-2; in the series on E. coli (10 strains) it was 1-4. Also, the “strains against which bactericidal” value in the series with S. aureus [5], in the series on Klebsiella spp. [15], with H. influenzae [16] and in the series on E. coli was 100% each time. Also, the “reduction in lung burden” value with P. aeruginosa C177 (1 mg/kg of tobramycin alone (FIG. 11)) is approximately 500 fold. For the same molecule, the figures for the “bacterial killing in rat lung” value with P. aeruginosa C177 (2.5 mg/kg intratracheally twice daily for 3 days (FIG. 11)) and in the series with P. aeruginosa C177 (doses=0.5 mg/kg intratracheally) were 3 Log10 and “did not result in bacterial killing”, respectively. Besides, in the series with P. aeruginosa C177 (doses higher than 3 mg/kg intratracheally), the “eradication of P. aeruginosa infection” value is “complete eradication”. The MBC/MIC in the series on P. aeruginosa ATCC 27853 [10] is on record as 1. The bactericidal or bacteriostatic entry in the series with P. aeuriginosa (2% mucin (FIGS. 4-6)) is “rapidly bactericidal”. Further, the “time-dependent or concentration-dependent killing” value with P. aeuriginosa (2% mucin (FIGS. 4-6)) was “concentration-dependent killing”. In the series on P. aeuriginosa (2% mucin (FIGS. 5-6)), the “re-growth within 24 hours” value is recorded as “re-growth occurred within 24 hours”. The MIC turned out to be 64 µg/mL (≈ 137 µM) against S. aureus [12]; 0.25 µg/mL (≈ 0.535 µM) in the series with S. aureus [12] (MRSA); 0.25 µg/mL (≈ 0.535 µM) with S. aureus [12] (MSSA); 128 µg/mL (≈ 274 µM) with S. aureus [12] (strain COR-059); 64 µg/mL (≈ 137 µM) in the series with S. pneumoniae [13] (strain COR-061); 16 µg/mL (≈ 34.2 µM) with S. pneumoniae [13] (strain COR-068). Further, the MIC in the series on H. influenzae [14] (Haemophilus influenzae) and with H. influenzae [14] (strain COR-049) was 0.5 µg/mL (≈ 1.07 µM) each time. The “sputum concentration range for patient type and dose” value in series [17] (both FTI doses, CF and bronchiectasis patients) lay in the range of 326 to 881 µg/g. Moreover, the peak concentration (Cmax) in series [17] (20 mg, patients with Bronchiectasis, aerosolized 80:20 mg FTI) was 326000 ng/g; in [17] (20 mg, patients with Cystic Fibrosis, aerosolized 80:20 mg FTI), 580000 ng/g; in [17] (40 mg, patients with Bronchiectasis, aerosolized 160:40 mg FTI) it was 587000 ng/g; in [17] (40 mg, patients with Cystic Fibrosis, aerosolized 160:40 mg FTI), 881000 ng/g. In addition, the “activity at 24 hours in time-kill curves (FIG. 2)” value in the series on P. aeruginosa ATCC 27853 [19] (12.8 μg/mL fosfomycin, 3.2 μg/mL tobramycin, or both, 24 hours) was “re-growth was observed”. For the same molecule, the “killing activity in time-kill curves (FIG. 2)” value with P. aeruginosa ATCC 27853 [19] (4×MIC: 12.8 μg/mL fosfomycin + 3.2 μg/mL tobramycin vs the components alone) is given as “bacteriostatic activity”. Further, in the series with P. aeruginosa ATCC 27853 [19] (9:1 combination (fosfomycin 14.4 μg/mL + tobramycin 1.6 μg/mL) vs the components alone), the “killing activity in time-kill curves (FIG. 1)” value is recorded as “bacteriostatic killing”.
Take `O=C(O)c1cn(C2CC2)c2cc(N3CCNCC3)c(F)cc2c1=O` [ciprofloxacin]: the MIC50 in the series with S. aureus [20] is more than 4 µg/mL.
In the case of `CN[C@H](CC(C)C)C(=O)N[C@H]1C(=O)N[C@@H](CC(N)=O)C(=O)N[C@H]2C(=O)N[C@H]3C(=O)N[C@H](C(=O)N[C@H](C(=O)O)c4cc(O)cc(O)c4-c4cc3ccc4O)[C@H](O)c3ccc(c(Cl)c3)Oc3cc2cc(c3O[C@@H]2O[C@H](CO)[C@@H](O)[C@H](O)[C@H]2O[C@H]2C[C@](C)(N)[C@H](O)[C@H](C)O2)Oc2ccc(cc2Cl)[C@H]1O` [vancomycin], the MIC50 with S. aureus [20] is 1 µg/mL (≈ 0.69 µM).
